≈ marks a conversion by molar mass, not a printed value.
Columns and labels:
[1] = tested on: PVY; assay: Anti-PVY inactivating activity, half-leaf method; conditions: for pest or weed control at 500 µg/mL / EC50: Potato virus Y, in Chenopodium amaranticolor; for pest or weed control at 500 µg/mL: 120 h; for EC50: read-out: Inactivating effect EC50
Description: (§1) Owing to its non-host resistance to PVY, Chenopodium amaranticolor develops a hypersensitive response (HR) within 48–72 hours post-inoculation, producing sharply delimited chlorotic or necrotic local lesions on the inoculated leaves. The number of lesions correlates linearly and positively with virus titre, thereby serving as a quantitative indicator of viral virulence and of the inactivating efficacy of test compounds. The PVY viral extract was rubbed onto the surface of Nicotiana tabacum K326 leaves. After the characteristic symptoms of leaf wrinkling and inward curling appeared, the leaves were harvested and stored at -80°C, then purified according to previously reported methods.[50]^,[51]^,[52] Host leaves were ground to a fine powder in liquid nitrogen, followed by homogenization on ice in 0.5 M phosphate buffer. An equal volume of chloroform:n-butanol (1:1, v/v) corresponding to 10% of the total buffer volume was added, and the mixture was further homogenized on ice. After centrifugation at 10,000g for 20 minutes (4°C), the supernatant was collected as the crude PVY extract. Using 4–5-leaf-stage Chenopodium amaranticolor maintained under optimal growth conditions, a bioassay was conducted with two plants per treatment to systematically evaluate the curative, protective, and inactivating efficacy of the target compound against PVY.[53] […] Each compound was evaluated in three replicates, and the average value was calculated.
Two different dilutions of the virus solution (600-fold and 1200-fold) were prepared, along with a 1000 μg/mL drug solution. The drug solution was mixed with the 600-fold diluted virus solution on ice and incubated for 30 minutes. During the incubation period, the left side of the leaves was treated with a 1200-fold diluted virus solution. After the incubation was completed, the mixed system of drug and virus is inoculated on the right side of the leaf. After waiting for the infection to be completed, the carborundum on the leaf surface was washed off with running water, and the plants were then cultivated in a greenhouse. The number of dead spots on the leaves was counted after approximately 5 days.

[2] = tested on: PVY; assay: Anti-PVY curative activity, half-leaf method; conditions: Potato virus Y, in Chenopodium amaranticolor, 120 h, read-out: Curative effect (%)
Description: as §1
Chenopodium amaranticolor was selected as the dead spot host. Excess leaves were first trimmed off, and a uniform layer of carborundum was applied to the leaf surface. The leaves were then inoculated by rubbing with a 1200-fold diluted virus solution. After more than an hour, the carborundum on the leaf surface was washed off with running water, and a 500 μg/mL drug solution was prepared. […] The treated plants were cultivated in a greenhouse for observation, and the number of dead spots on the leaves was counted after approximately 5 days.

[3] = tested on: PVY; assay: Anti-PVY protective activity, half-leaf method; conditions: Potato virus Y, in Chenopodium amaranticolor, 120 h, read-out: Protective effect (%)
Description: as §1
In contrast to the antiviral therapeutic activity, the leaves were first treated with the drug solution. A 500 μg/mL drug solution was applied to the right side of the leaves, with the left side serving as a control and treated with a 1% Tween 80 solution. After the leaves had dried under natural conditions, they were placed in a greenhouse for 24 hours before inoculation by rubbing with carborundum, following the same procedures as those for curative activity. After treatment, the plants were maintained in a greenhouse, and the number of local lesions on the inoculated leaves was recorded approximately 5 days.

[4] = biological target: T1, PVY CP^P154A (Potato virus Y, UniProt P18247, P2950A); assay: MST binding to mutant PVY CP^P154A
T1 construct: 6xHis tag (within the N-terminal pET-32a(+) fusion leader; the Trx and S-tag parts are inferred from the vector and the ~50 kDa band) (N, cleaved yes); made in house; host or cells: Escherichia coli BL21 (DE3) pLysS
T1 sequence (P18247 2797-3063 P2950A): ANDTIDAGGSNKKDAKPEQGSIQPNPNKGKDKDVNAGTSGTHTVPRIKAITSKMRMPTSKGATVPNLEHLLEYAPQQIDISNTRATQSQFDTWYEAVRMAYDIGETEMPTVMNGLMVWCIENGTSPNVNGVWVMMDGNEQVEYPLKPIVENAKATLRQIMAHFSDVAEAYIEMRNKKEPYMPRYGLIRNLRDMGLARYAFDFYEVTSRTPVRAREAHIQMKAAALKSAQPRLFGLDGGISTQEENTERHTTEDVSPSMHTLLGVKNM

[5] = biological target: T2, PVY CP (Potato virus Y, UniProt P18247); assay: biochemical; type: binding
T2 construct: 6xHis tag (within the N-terminal pET-32a(+) fusion leader; the Trx and S-tag parts are inferred from the vector and the ~50 kDa band) (N, cleaved yes); made in house; host or cells: Escherichia coli BL21 (DE3) pLysS

[6] = read-out: Inactivating effect (%), 500 μg/mL, host Chenopodium amaranticolor, average of three replicates

T2 sequence (P18247 2797-3063): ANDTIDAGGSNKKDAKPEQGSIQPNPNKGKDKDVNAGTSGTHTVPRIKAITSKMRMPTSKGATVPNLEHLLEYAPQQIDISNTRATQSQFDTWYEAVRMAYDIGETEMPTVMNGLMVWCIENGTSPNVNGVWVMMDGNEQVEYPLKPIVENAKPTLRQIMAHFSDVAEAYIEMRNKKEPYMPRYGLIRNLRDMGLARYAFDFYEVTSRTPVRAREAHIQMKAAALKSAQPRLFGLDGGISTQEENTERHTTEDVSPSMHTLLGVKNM

SMILES | pest or weed control at 500 µg/mL [1, 6] [%] | pest or weed control at 500 µg/mL [2] [%] | pest or weed control at 500 µg/mL [3] [%] | EC50 [1] [µg/mL] | Kd [4] [µM] | Kd [5] [µM] | Inactivating effect (%) ([1]; 500 μg/mL, host Chenopodium amaranticolor, average of three replicates) | pest or weed control at 500 µg/mL ([1]; read-out: Inactivating effect (%)) [%]
COc1ccc(/C=C2\Oc3cc(OCC(=O)NS(=O)(=O)c4ccc(F)cc4)ccc3C2=O)cc1 [D10] | 43.7 ± 5 | 24.4 ± 1.9 | 33.9 ± 4 |  |  |  |  | 
COc1ccccc1/C=C1\Oc2cc(OCC(=O)NS(=O)(=O)c3cccc(C(F)(F)F)c3)ccc2C1=O [D35] | 46.6 ± 2 | 37.6 ± 1.8 | 39.9 ± 2.8 |  |  |  |  | 
COc1cccc(/C=C2\Oc3cc(OCC(=O)NS(=O)(=O)c4ccc(Br)cc4)ccc3C2=O)c1 [D16] | 42.9 ± 4.3 | 29 ± 1.6 | 36.9 ± 2.4 |  |  |  |  | 
COc1ccc(/C=C2\Oc3cc(OCC(=O)NS(=O)(=O)c4ccccc4)ccc3C2=O)cc1 [D2] | 60 to 80 | 41.4 ± 2.9 | 36.9 ± 2.7 |  |  |  |  | 
COc1ccc(OC)c(/C=C2\Oc3cc(OCC(=O)NS(=O)(=O)c4ccc(Cl)cc4)ccc3C2=O)c1 [D33] | 51.1 ± 3.9 | 41.2 ± 2.4 | 39.7 ± 2.7 |  |  |  |  | 
COc1cc(/C=C2\Oc3cc(OCC(=O)NS(=O)(=O)c4ccc(Br)cc4)ccc3C2=O)cc(OC)c1 [D21] | 50.5 ± 1.6 | 33 ± 3.9 | 22.7 ± 1.2 |  |  |  |  | 
COc1cc(/C=C2\Oc3cc(OCC(=O)NS(=O)(=O)c4ccc(F)cc4)ccc3C2=O)cc(OC)c1 [D28] | 56.4 ± 4.7 | 39.9 ± 2.9 | 32.5 ± 4.4 |  |  |  |  | 
COc1ccc(/C=C2\Oc3cc(OCC(=O)NS(=O)(=O)c4ccccc4)ccc3C2=O)cc1OC [D23] | 45.4 ± 1.1 | 35.3 ± 1.5 | 33.4 ± 3.9 |  |  |  |  | 
COc1cccc(/C=C2\Oc3cc(OCC(=O)NS(=O)(=O)c4ccc(Cl)cc4)ccc3C2=O)c1OC [D17] | 60 to 80 | 46.2 ± 1.4 | 40.7 ± 2.3 | 142 ± 15.2 (≈ 267 µM) |  |  |  | 
COc1ccc(OC)c(/C=C2\Oc3cc(OCC(=O)NS(=O)(=O)c4ccccc4)ccc3C2=O)c1 [D30] | 49.4 ± 3.4 | 33.3 ± 1.4 | 34.2 ± 3.3 |  |  |  |  | 
NC(=O)c1ncn([C@@H]2O[C@H](CO)[C@@H](O)[C@H]2O)n1 [RBV, ribavirin, reference compound] | 59.3 | 41.9 ± 2.7 | 44.2 ± 3.1 | 213 ± 15.4 (≈ 873 µM) | 210 ± 59.3 | 50.5 | 59.3 ± 3.8 | 
COc1cc(OC)c(/C=C2\Oc3cc(OCC(=O)NS(=O)(=O)c4ccc(Cl)cc4)ccc3C2=O)c(OC)c1 [D32] | 53.8 ± 3 | 43.4 ± 2.3 | 33.3 ± 2.6 |  |  |  |  | 
COc1cc(/C=C2\Oc3cc(OCC(=O)NS(=O)(=O)c4ccccc4)ccc3C2=O)cc(OC)c1 [D24] | 60 to 80 | 50.1 ± 1.8 | 31 ± 3 | 147 ± 11 (≈ 297 µM) |  |  |  | 
COc1ccc(/C=C2\Oc3cc(OCC(=O)NS(=O)(=O)c4cccc(C(F)(F)F)c4)ccc3C2=O)cc1 [D36] | 55.1 ± 2.8 | 36.8 ± 2.2 | 33.9 ± 4.1 |  |  |  |  | 
COc1cc(OC)c(/C=C2\Oc3cc(OCC(=O)NS(=O)(=O)c4ccccc4)ccc3C2=O)c(OC)c1 [D31] | 57.4 ± 4.3 | 42.9 ± 2.4 | 26.3 ± 2.6 |  |  |  |  | 
COc1cccc(/C=C2\Oc3cc(OCC(=O)NS(=O)(=O)c4ccccc4)ccc3C2=O)c1 [D6] | 58.8 ± 4.5 | 36.5 ± 2.9 | 40.5 ± 0.8 |  |  |  |  | 
COc1ccccc1/C=C1\Oc2cc(OCC(=O)NS(=O)(=O)c3ccccc3)ccc2C1=O [D4] | 60 to 80 | 43.1 ± 2.9 | 33.8 ± 1 |  |  |  |  | 
COc1cc(OC)c(/C=C2\Oc3cc(OCC(=O)NS(=O)(=O)c4ccc(F)cc4)ccc3C2=O)c(OC)c1 [D29] | 57.1 ± 4.3 | 36.7 ± 4 | 37.9 ± 2.7 |  |  |  |  | 
COc1cccc(/C=C2\Oc3cc(OCC(=O)NS(=O)(=O)c4ccc(F)cc4)ccc3C2=O)c1OC [D27] | 60 to 80 | 45.1 ± 3.7 | 33.9 ± 2.3 |  |  |  |  | 

SMILES | pest or weed control at 500 µg/mL [1, 6] [%] | pest or weed control at 500 µg/mL [2] [%] | pest or weed control at 500 µg/mL [3] [%] | EC50 [1] [µg/mL] | Kd [4] [µM] | Kd [5] [µM] | Inactivating effect (%) ([1]; 500 μg/mL, host Chenopodium amaranticolor, average of three replicates) | pest or weed control at 500 µg/mL ([1]; read-out: Inactivating effect (%)) [%]
COc1ccc(/C=C2\Oc3cc(OCC(=O)NS(=O)(=O)c4ccc(F)cc4)ccc3C2=O)cc1OC [D26] | 55.3 ± 3 | 32.4 ± 1.7 | 40.2 ± 5 |  |  |  |  | 
COc1ccc(/C=C2\Oc3cc(OCC(=O)NS(=O)(=O)c4ccc(Br)cc4)ccc3C2=O)c(OC)c1 [D14] | 49.2 ± 4.2 | 29.8 ± 4.8 | 37.9 ± 4.4 |  |  |  |  | 
COc1ccc(/C=C2\Oc3cc(OCC(=O)NS(=O)(=O)c4cccc(C(F)(F)F)c4)ccc3C2=O)c(OC)c1 [D37] | 43.8 ± 3.2 | 38.2 ± 2.2 | 29.8 ± 2.7 |  |  |  |  | 
COc1cccc(/C=C2\Oc3cc(OCC(=O)NS(=O)(=O)c4ccc(Cl)cc4)ccc3C2=O)c1 [D5] | 60 to 80 | 41.7 ± 3.5 | 37.6 ± 4.8 |  |  |  |  | 
COc1ccccc1/C=C1\Oc2cc(OCC(=O)NS(=O)(=O)c3ccc(F)cc3)ccc2C1=O [D12] | 59.4 ± 3.6 | 34.1 ± 3.5 | 44.5 ± 1.5 |  |  |  |  | 
COc1ccccc1/C=C1\Oc2cc(OCC(=O)NS(=O)(=O)c3ccc(Br)cc3)ccc2C1=O [D15] | 53.4 ± 4.2 | 37.1 ± 0.9 | 39.3 ± 2.9 |  |  |  |  | 
COc1cccc(/C=C2\Oc3cc(OCC(=O)NS(=O)(=O)c4ccc(Br)cc4)ccc3C2=O)c1OC [D25] | 55.4 ± 2 | 35.9 ± 3.9 | 41.9 ± 2.6 |  |  |  |  | 
COc1cc(/C=C2\Oc3cc(OCC(=O)NS(=O)(=O)c4ccc(Cl)cc4)ccc3C2=O)cc(OC)c1 [D19] | 46 ± 3 | 36.4 ± 5.6 | 35.7 ± 3.8 |  |  |  |  | 
COc1ccc(/C=C2\Oc3cc(OCC(=O)NS(=O)(=O)c4ccc(Cl)cc4)ccc3C2=O)cc1OC [D18] | 56.8 ± 2.8 | 25.5 ± 4 | 38.2 ± 3 |  |  |  |  | 
COc1ccc(/C=C2\Oc3cc(OCC(=O)NS(=O)(=O)c4ccc(C(F)(F)F)cc4)ccc3C2=O)c(OC)c1 [D38] | 33.3 ± 3.1 | 36.7 ± 3.5 | 28 ± 4 |  |  |  |  | 
COc1cccc(/C=C2\Oc3cc(OCC(=O)NS(=O)(=O)c4ccc(F)cc4)ccc3C2=O)c1 [D11] | 52.9 ± 2.8 | 40.6 ± 2 | 42.7 ± 2.8 |  |  |  |  | 
COc1ccc(/C=C2\Oc3cc(OCC(=O)NS(=O)(=O)c4ccc(Cl)cc4)ccc3C2=O)cc1 [D1] | 50 ± 3.5 | 38.7 ± 3.7 | 44.8 ± 3.8 | 307 ± 13.7 (≈ 614 µM) |  |  |  | 
CNCC(=O)N[C@@H](CO)C(=O)N[C@H]1[C@H](O)[C@@H](O)[C@H](n2ccc(N)nc2=O)O[C@@H]1C(N)=O [NNM, ningnanmycin, reference compound] |  | 49 ± 3.9 | 49.1 ± 1.8 | 54.3 ± 2.2 (≈ 122 µM) |  |  |  | 83.3 ± 1.2
COc1ccc(/C=C2\Oc3cc(OCC(=O)NS(=O)(=O)c4ccc(Br)cc4)ccc3C2=O)cc1OC [D22] | 52 ± 3 | 36.2 ± 1.5 | 28.1 ± 2.3 |  |  |  |  | 
COc1ccc(OC)c(/C=C2\Oc3cc(OCC(=O)NS(=O)(=O)c4ccc(F)cc4)ccc3C2=O)c1 [D34] | 46.9 ± 2.4 | 39.9 ± 3.7 | 36 ± 1.6 |  |  |  |  | 
COc1ccc(/C=C2\Oc3cc(OCC(=O)NS(=O)(=O)c4ccc(F)cc4)ccc3C2=O)c(OC)c1 [D9] | 58.1 ± 5.4 | 45.7 ± 3.3 | 35.6 ± 2.5 |  |  |  |  | 
COc1cccc(/C=C2\Oc3cc(OCC(=O)NS(=O)(=O)c4ccccc4)ccc3C2=O)c1OC [D20] | 64.7 ± 3.4 | 34.9 ± 4.9 | 31.3 ± 3.8 |  |  |  |  | 
COc1ccccc1/C=C1\Oc2cc(OCC(=O)NS(=O)(=O)c3ccc(Cl)cc3)ccc2C1=O [D3] | 60 to 80 | 40.1 ± 3.8 | 36.9 ± 2.9 |  |  |  |  | 

From publication PMC12663734, “Sulfonamine-containing aurone derivatives act as inhibitors of intercellular movement of potato virus Y” (iScience, 2025)
